{
  "source": "patent US4996227A",
  "about": "“3-(heteroarylalkyene)- and 3-(arylalkylene)-2,4(3H,5H)-heterocyclic diones as cancer chemotherapy drugs” (priority 1989, dated 1991)",
  "key": {"[1]": {"test_system": "KS62 strain stem-cell human leukemia cells", "test": "Inhibition of human leukemia cell growth in vitro, as done in Example 3", "format": "cell-based", "conditions": "Homo sapiens", "experimental": "A conventionally available cell line (K562) derived from human chronic granulocytic leukemia was employed in an in vitro procedure. The leukemia cell line was cultured in a suspension of RPMI 1640 plus 10% fetal calf serum. All initial cell concentrations for the cultures were 0.65 times 10^5 cells/ml. Four separate suspension cultures were employed with the first suspension culture having no additions. The second suspension culture included 100 microliters of the solvent DMSO per 10 ml of culture (control). The third culture contained 1 ug/ml of 3[[5-methyl-2 thienyl]methylene]-2, 4 (3H, 5H) furandione and the fourth culture contained 1 ug/ml of 3[[3-methyl-2-thienyl]methylene]-2, 4 (3H, 5H) furandione. The cell concentration of each of the four cultures was determined. After three days and again after five days.\nIn this example, aliquots of 1.0, 5.0 and 10.0 mcg/ml of each of the family compounds was prepared and assayed against KS62 strain stem-cell human leukemia cells in an in vitro procedure as done in Example 3 above."}, "[2]": {"test_system": "human tumors", "test": "Human Tumor Stem Cell Assay, summary over the tumor panel", "format": "cell-based", "conditions": "for activity at 1 µg/mL: Homo sapiens, 1.0 mcg/ml, 1 h", "source_text": "The in vitro Human Tumor Stem Cell Assay procedure described as follows has several advantages for testing the effectiveness of chemotherapy drugs such as the 3-(heteroarylalkylene)-2,4(3H,5H)-furandiones. The first advantage is that fresh tumor cells from a variety of tumor types were used rather than a small number of cell lines which have undergone severe selection pressures as they are passed in vitro. The second advantage is that only the anchorage-independent tumor cells will form colonies in soft agar so that any non-malignant cells present in the sample will not form colonies. Perhaps the most important advantage, however, is the emphasis on cells which have the ability to form colonies. These cells, which are generally called stem cells, usually comprise only a small percentage of all tumor cells. They are thought to be the most important cells for growth and distant spread of a tumor. In particular, these cells have the potential to leave the primary tumor and form new tumors at distant sites (called metastases). It is the effectiveness against these very important stem cells that the Human Tumor Stem Cell Assay measures.\nOne of the 3-(heteroarylalkylene)-2,4(3H,5H)-furandione compounds, 3-[(5-methyl-2-thienyl) methylene]-2,4(3H,5H)-furandione was evaluated against a series of 10 human tumors in the in vitro Human Tumor Cell Assay, along with conventional and standard chemotherapy agents.\nIn the procedure, a single cell suspension was prepared from tumors excised from patients during therapeutic or diagnostic surgical procedures. The human tumor cells were exposed to known anticancer drugs or to [(5-methyl-2-thienyl)methylene]-2,4 (3H, 5H)-furandione at a low (0.2 mcg/ml) or a high (1.0 mcg/ml) concentration for one hour. […] The suspension was washed with tissue culture medium to remove the drug.\nThe suspension was then cultured in a double soft agar suspension. Control cells which had been treated identically, except for exposure to the drugs, were also cultured. After one to two weeks, both the tumor cells and the control cells formed colonies in the soft agar which were enumerated under a microscope. The number of colonies grown from the drug-treated cells was compared to the number of colonies grown from the control cells, and the percentage growth after exposure to the drug was calculated.\nThe results are illustrated in Table 1, wherein the various numbers indicate the percentage of growth. For example, a small number like 6 means that the number of colonies is only 6% of the number without addition of the compound. On the other hand, a large number like 120 means that the number of colonies is 20% greater with the compound than without. […]"}, "[3]": {"test_system": "healthy mice", "test": "Toxicology testing in healthy mice: hematology", "format": "in vivo", "conditions": "for Absolute Neutrophils / Hemoglobin / WBC: i.p.", "experimental": "The purpose of this example was to determine approximate toxicity of the compound 3[(5-methyl-2-thienyl) methylene]-2,4(3H,5H)-furandione in healthy mice. The in vivo concentrations employed in the example were selected by using the in vitro results in the Human Tumor Stem Cell Assay as a guide. The compound was given to the mice by means of intra-peritoneal injection. In addition to a control group which was injected with the appropriate carrier solution without drug, three test groups with calculated plasma concentrations of 1, 10 and 100 mcg/ml (low, medium and high concentrations) were prepared. Based upon the results from Table 1, the three test groups represent low, medium and high concentrations of drug dosages. The highest concentration of 100 mcg/ml is about 10 times the predicted effective dose (in vivo) of tumoricidal activity. Each group contained eight animals. Blood was extracted from four animals in each group two days after the intraperitoneal injection and routine hematology (i.e., a hemoglobin concentration, a white blood cell count, and a neutrophil count) procedures were performed.\nHalf of the animals in each group were sacrificed after one week (Day 7), and the remaining animals in each group were sacrificed after two weeks (Day 14). Routine hematology was performed at the time of sacrifice."}, "[4]": {"conditions": "high, 100 mcg/ml calculated plasma, Day 2"}, "[5]": {"conditions": "high, 100 mcg/ml calculated plasma, Day 7"}, "[6]": {"conditions": "high, 100 mcg/ml calculated plasma, Day 14"}, "[7]": {"conditions": "low, 1 mcg/ml calculated plasma, Day 2"}, "[8]": {"conditions": "low, 1 mcg/ml calculated plasma, Day 7"}, "[9]": {"conditions": "low, 1 mcg/ml calculated plasma, Day 14"}, "[10]": {"conditions": "medium, 10 mcg/ml calculated plasma, Day 2"}, "[11]": {"conditions": "medium, 10 mcg/ml calculated plasma, Day 7"}, "[12]": {"conditions": "medium, 10 mcg/ml calculated plasma, Day 14"}},
  "note": "Where two headings read alike, the source gives them in different places.",
  "data": [
    {"smiles": "Cc1ccc(C=C2C(=O)COC2=O)s1", "note": "[Compound 4, 3[(5-methyl-2-thienyl)methylene]2,4(3H,5H)-furandione]", "values": [
      {"measurement": "inhibition at 1 µg/mL", "setting": "[1]; 1.0 mcg/ml", "value": 32, "unit": "%"},
      {"measurement": "inhibition at 5 µg/mL", "setting": "[1]; 5.0 mcg/ml", "value": 97, "unit": "%"},
      {"measurement": "inhibition at 10 µg/mL", "setting": "[1]; 10.0 mcg/ml", "value": 100, "unit": "%"},
      {"measurement": "activity at 1 µg/mL", "setting": "[2]; five of nine tumors, read-out: growth, borderline sensitive tumors", "value": "30 to 50", "unit": "%"},
      {"measurement": "activity at 1 µg/mL", "setting": "[2]; four of nine tumors, read-out: growth, sensitive tumors", "value": "0 to 30", "unit": "%"},
      {"measurement": "peak plasma concentration at which compound should be effective in vivo", "setting": "[2]; by analogy with other chemotherapy drugs", "value": 10, "unit": "µg/mL"},
      {"measurement": "activity against human solid tumors in vitro", "setting": "[2]; one hour exposure, 1 mcg/ml", "value": "extremely active against a wide variety of human solid tumors in vitro"},
      {"measurement": "absolute neutrophil count, change", "setting": "[3]; after one week", "value": "significant decrease in the absolute neutrophil count after one week, indicating suppression of bone marrow"},
      {"measurement": "total white blood cell count, change", "setting": "[3]; all groups", "value": "slightly decreased from Day 2 to Day 7, the count increased in all groups from Day 7 to Day 14"},
      {"measurement": "hemoglobin levels, change", "setting": "[3]; all test groups, 14-day test period", "value": "no significant decreases in hemoglobin levels"},
      {"measurement": "myelosuppression in vivo", "setting": "[3]; at drug level predicted by the in vitro assay", "value": "some myelosuppression in vivo"},
      {"measurement": "platelet count, change", "setting": "[3]; blood smears", "value": "platelet count was not significantly decreased"},
      {"measurement": "Absolute Neutrophils", "setting": "[3]; [4]", "value": 5224, "unit": "cells/ul"},
      {"measurement": "Hemoglobin", "setting": "[3]; [4]", "value": 13.2, "unit": "g/100 ml"},
      {"measurement": "WBC", "setting": "[3]; [4]", "value": 9594, "unit": "Cells/ul"},
      {"measurement": "Hemoglobin", "setting": "[3]; [5]", "value": 13.6, "unit": "g/100 ml"},
      {"measurement": "WBC", "setting": "[3]; [5]", "value": 5775, "unit": "Cells/ul"},
      {"measurement": "Absolute Neutrophils", "setting": "[3]; high, 100 mcg/ml calculated plasma, Day 7 (text SD=622), 4 (3H, 5H) FURANDIONE", "value": 1167, "unit": "cells/ul"},
      {"measurement": "Absolute Neutrophils", "setting": "[3]; high, 100 mcg/ml calculated plasma, Day 7 (text SD=622), listed as tested furandione compound", "value": "1,167 cells/ul"},
      {"measurement": "Absolute Neutrophils", "setting": "[3]; [6]", "value": 2025, "unit": "cells/ul"},
      {"measurement": "Hemoglobin", "setting": "[3]; [6]", "value": 13.9, "unit": "g/100 ml"},
      {"measurement": "WBC", "setting": "[3]; [6]", "value": "12,175 Cells/ul"},
      {"measurement": "Absolute Neutrophils", "setting": "[3]; [7]", "value": 2869, "unit": "cells/ul"},
      {"measurement": "Hemoglobin", "setting": "[3]; [7]", "value": 13.7, "unit": "g/100 ml"},
      {"measurement": "WBC", "setting": "[3]; [7]", "value": 7000, "unit": "Cells/ul"},
      {"measurement": "Hemoglobin", "setting": "[3]; [8]", "value": 14.25, "unit": "g/100 ml"},
      {"measurement": "WBC", "setting": "[3]; [8]", "value": 6562, "unit": "Cells/ul"},
      {"measurement": "Absolute Neutrophils", "setting": "[3]; low, 1 mcg/ml calculated plasma, Day 7 (text SD=942), 4 (3H, 5H) FURANDIONE", "value": 1731, "unit": "cells/ul"},
      {"measurement": "Absolute Neutrophils", "setting": "[3]; low, 1 mcg/ml calculated plasma, Day 7 (text SD=942), listed as tested furandione compound", "value": "1,731 cells/ul"},
      {"measurement": "Hemoglobin", "setting": "[3]; [9]", "value": 13.6, "unit": "g/100 ml"},
      {"measurement": "WBC", "setting": "[3]; [9]", "value": 9675, "unit": "Cells/ul"},
      {"measurement": "Absolute Neutrophils", "setting": "[3]; low, 1 mcg/ml calculated plasma, Day 14, three animals", "value": 2183, "unit": "cells/ul"},
      {"measurement": "neutrophil difference vs control", "setting": "[3]; low, 1 mcg/ml, Day 7", "value": "no significant difference between the control and the low concentration group"},
      {"measurement": "Absolute Neutrophils", "setting": "[3]; [10]", "value": 3946, "unit": "cells/ul"},
      {"measurement": "Hemoglobin", "setting": "[3]; [10]", "value": 13.6, "unit": "g/100 ml"},
      {"measurement": "WBC", "setting": "[3]; [10]", "value": 7787, "unit": "Cells/ul"},
      {"measurement": "Hemoglobin", "setting": "[3]; [11]", "value": 13.9, "unit": "g/100 ml"},
      {"measurement": "WBC", "setting": "[3]; [11]", "value": 5812, "unit": "Cells/ul"},
      {"measurement": "Absolute Neutrophils", "setting": "[3]; medium, 10 mcg/ml calculated plasma, Day 7 (text SD=492), 4 (3H, 5H) FURANDIONE", "value": 1009, "unit": "cells/ul"},
      {"measurement": "Absolute Neutrophils", "setting": "[3]; medium, 10 mcg/ml calculated plasma, Day 7 (text SD=492), listed as tested furandione compound", "value": "1,009 cells/ul"},
      {"measurement": "Hemoglobin", "setting": "[3]; [12]", "value": 13.6, "unit": "g/100 ml"},
      {"measurement": "WBC", "setting": "[3]; [12]", "value": 8700, "unit": "Cells/ul"},
      {"measurement": "Absolute Neutrophils", "setting": "[3]; medium, 10 mcg/ml calculated plasma, Day 14, three animals", "value": 1256, "unit": "cells/ul"},
      {"measurement": "P, neutrophil difference vs control", "setting": "[3]; medium, 10 mcg/ml, Day 7", "value": "< 0.05"}
    ]}
  ]
}
